Results reported in patent US8895753B2, “S1P receptor modulating agent” (Meiji Seika Pharma Co., Ltd., priority 2011, dated 2014).
Values joined by “and” are separate entries in the source; they are usually repeats but may differ in a detail not shown here. Equal entries are not always repeated.

The compounds below were run against Human S1P1 receptor (Homo sapiens, UniProt P21453) (assay: Agonist activity at an S1P1 receptor (reporter assay, EDG1-bla/U2OS cells)). Conditions: S1P maximum response = 100%.
Type: cell-based
Parameters: host or cells: U2OS (EDG1-bla/U2OS)
Description: Human S1P1 receptor gene recombinant EDG1-bla/U2OS cells (Life Technologies Japan Ltd.) were plated in a 96-well half-sized clear bottom black plate at a density of 10000 cells/32 μL/well, and then the plate was incubated at 37° C. in a 5% CO2 incubator for 48 hours. A culture medium containing each test compound prepared as a 5× concentrate was added at 8 μL/well, and the plate was incubated at 37° C. in a 5% CO2 incubator for 5 hours. The substrate (LiveBLAzer™-FRET B/G substrate (CCF4-AM), Life Technologies Japan Ltd.) prepared as a 6× concentrate was added at 8 μL into each well, and the plate was incubated at room temperature for 2 hours in the dark. The fluorescence intensity of each well was detected using a bottom-reading fluorescence microplate reader (EnVision: ParkinElmer) at one excitation wavelength and 2 wavelengths for fluorescence emission (Ex409 nm, Em460 nm, Em530 nm). The intensity ratio of fluorescence at 460 nm/530 nm was calculated for each well. The maximum response ratio confirmed from the dose response of SIP was expressed as 100%. The concentration of a test compound required to stimulate 50% of its maximal activation was computed as EC50 (nM).

Sequence of Human S1P1 receptor (P21453 whole entry): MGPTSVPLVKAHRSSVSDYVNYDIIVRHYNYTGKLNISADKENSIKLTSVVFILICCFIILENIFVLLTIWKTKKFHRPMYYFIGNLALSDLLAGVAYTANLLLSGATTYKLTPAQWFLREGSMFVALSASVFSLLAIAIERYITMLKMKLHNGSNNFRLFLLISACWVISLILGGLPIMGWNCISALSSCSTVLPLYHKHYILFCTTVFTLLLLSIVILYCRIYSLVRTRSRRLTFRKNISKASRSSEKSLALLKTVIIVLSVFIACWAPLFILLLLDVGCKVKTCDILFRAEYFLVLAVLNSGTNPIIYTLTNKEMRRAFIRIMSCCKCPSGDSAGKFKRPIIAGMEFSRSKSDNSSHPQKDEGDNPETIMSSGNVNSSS

SMILES	EC50
CC(C)Oc1ccc(-c2cnc(-c3ccc(CN4CC(c5nn[nH]n5)C4)cc3)s2)cc1 [Example 4, 2-(4-((3-(2H-tetrazol-5-yl)azetidin-1-yl)methyl)phenyl)-5-(4-isopropoxyphenyl)thiazole]	≤ 100 nM and 87.1 nM
CC(C)Oc1ccc(-c2cnc(-c3ccc(CN4CCC(C(=O)O)CC4)cc3)s2)cc1 [Example 5, 1-(4-(5-(4-isopropoxyphenyl)thiazol-2-yl)benzyl)piperidine-4-carboxylic acid]	≤ 500 nM
CC(C)Oc1cccc(-c2cnc(-c3ccc(CN4CC(C(=O)O)C4)cc3)s2)c1 [Example 7, 1-(4-(5-(3-isopropoxyphenyl)thiazol-2-yl)benzyl)azetidine-3-carboxylic acid]	≤ 100 nM and 72.6 nM
CCCCc1cc(CN2CC(C(=O)O)C2)ccc1-c1ncc(-c2ccc(OC(C)C)cc2)s1 [Example 13, 1-(3-butyl-4-(5-(4-isopropoxyphenyl)thiazol-2-yl)benzyl)azetidine-3-carboxylic acid]	≤ 100 nM
CC(C)Oc1ccc(-c2cnc(-c3ccc(CN4CC(C(=O)O)C4)cc3C3CC3)s2)cc1 [Example 14, 1-(3-cyclopropyl-4-(5-(4-isopropoxyphenyl)thiazol-2-yl)benzyl)azetidine-3-carboxylic acid]	≤ 10 nM
O=C(O)C1CN(Cc2ccc(-c3ncc(-c4ccc(OC5CC5)cc4)s3)cc2)C1 [Example 16, 1-(4-(5-(4-cyclopropoxyphenyl)thiazol-2-yl)benzyl)azetidine-3-carboxylic acid]	≤ 100 nM
COc1cc(CN2CC(C(=O)O)C2)ccc1-c1ncc(-c2ccc(OC(C)C)cc2)s1 [Example 18, 1-(4-(5-(4-isopropoxyphenyl)thiazol-2-yl)-3-methoxybenzyl)azetidine-3-carboxylic acid]	≤ 500 nM
CCc1cc(-c2ncc(-c3ccc(OC(C)C)cc3)s2)ccc1CN1CC(C(=O)O)C1 [Example 20, 1-(2-ethyl-4-(5-(4-isopropoxyphenyl)thiazol-2-yl)benzyl)azetidine-3-carboxylic acid]	≤ 100 nM
CC(C)Oc1ccc(-c2cnc(-c3ccc(CN4CC(C(=O)O)C4)c(C4CC4)c3)s2)cc1 [Example 24, 1-(2-cyclopropyl-4-(5-(4-isopropoxyphenyl)thiazol-2-yl)benzyl)azetidine-3-carboxylic acid]	≤ 100 nM
Cc1cc(-c2ncc(-c3ccc(OC(C)C)cc3)s2)ccc1CN1CC(C(=O)O)C1 [Example 25, 1-(4-(5-(4-isopropoxyphenyl)thiazol-2-yl)-2-methylbenzyl)azetidine-3-carboxylic acid]	≤ 10 nM
COc1cc(-c2ncc(-c3ccc(OC(C)C)cc3)s2)ccc1CN1CC(C(=O)O)C1 [Example 26, 1-(4-(5-(4-isopropoxyphenyl)thiazol-2-yl)-2-methoxybenzyl)azetidine-3-carboxylic acid]	≤ 100 nM
CC(C)Oc1ccc(-c2cnc(-c3ccc(CN4CC(C(=O)O)C4)c(C(F)(F)F)c3)s2)cc1 [Example 27, 1-(4-(5-(4-isopropoxyphenyl)thiazol-2-yl)-2-(trifluoromethyl)benzyl)azetidine-3-carboxylic acid]	≤ 100 nM
CC(C)(C)c1ccc(-c2cnc(-c3ccc(CN4CC(C(=O)O)C4)cc3)s2)cc1 [Example 33, 1-(4-(5-(4-tert-butylphenyl)thiazol-2-yl)benzyl)azetidine-3-carboxylic acid]	≤ 100 nM
CCCCCCc1ccc(-c2cnc(-c3ccc(CN4CC(C(=O)O)C4)cc3)s2)cc1 [Example 35, 1-(4-(5-(4-hexylphenyl)thiazol-2-yl)benzyl)azetidine-3-carboxylic acid]	≤ 500 nM
CCCCOc1ccc(-c2cnc(-c3ccc(CN4CC(C(=O)O)C4)cc3)s2)cc1 [Example 39, 1-(4-(5-(4-butoxyphenyl)thiazol-2-yl)benzyl)azetidine-3-carboxylic acid]	≤ 100 nM
CCCCCOc1ccc(-c2cnc(-c3ccc(CN4CC(C(=O)O)C4)cc3)s2)cc1 [Example 40, 1-(4-(5-(4-pentyloxyphenyl)thiazol-2-yl)benzyl)azetidine-3-carboxylic acid]	≤ 500 nM
